Test results taken from US5061720A, “Substituted-4-thiazolidinone derivatives” (A. H. Robins Company, Inc., priority 1989, dated 1991).

Biological target: T1, cyclooxygenase (Ovis aries, UniProt P05979)
T1 construct: Lipid-depleted Sheep Seminal Vesicle Microsome Suspension; from tissue; host or cells: sheep seminal vesicle microsomes (lipid-depleted powder, detergent solubilized)
T1 sequence (P05979 25-600): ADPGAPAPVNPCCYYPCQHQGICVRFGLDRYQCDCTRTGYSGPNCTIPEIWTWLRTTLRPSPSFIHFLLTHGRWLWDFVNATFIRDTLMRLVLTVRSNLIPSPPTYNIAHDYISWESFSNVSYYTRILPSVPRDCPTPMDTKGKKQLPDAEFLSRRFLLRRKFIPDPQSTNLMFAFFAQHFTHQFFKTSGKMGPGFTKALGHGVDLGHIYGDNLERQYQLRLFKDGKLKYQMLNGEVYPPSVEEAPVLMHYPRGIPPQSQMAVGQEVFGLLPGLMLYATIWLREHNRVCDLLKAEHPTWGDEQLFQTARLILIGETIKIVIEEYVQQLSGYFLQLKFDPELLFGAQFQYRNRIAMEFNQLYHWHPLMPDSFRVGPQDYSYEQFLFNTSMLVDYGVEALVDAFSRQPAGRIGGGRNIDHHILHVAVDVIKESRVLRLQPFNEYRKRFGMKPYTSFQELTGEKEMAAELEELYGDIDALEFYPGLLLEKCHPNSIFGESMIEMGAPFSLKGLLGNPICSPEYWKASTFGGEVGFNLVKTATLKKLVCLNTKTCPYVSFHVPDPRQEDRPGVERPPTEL
Experiment: Cyclooxygenase Assay (polarigraphic oxygen consumption, lipid-depleted sheep seminal vesicle microsomes)
Format: biochemical
Conditions: 30° C., 2 min incubation, ammonium arachidonate substrate
Protocol: Cyclooxygenase activity was determined polarigraphically with detergent solubilized, lipid-depleted sheep seminal vesical microsomes. Addition of test articles that inhibit cyclooxygenase, including reference standards, cause a decrease in the rate of oxygen consumption in the reactions. Cyclooxygenase activity is determined using the following procedures:
I. Preparation of Test Materials
1. Lipid-Depleted Sheep Seminal Vesicle Microsomal Powder. This preparation follows the procedure of G. Graff et al. J. Biol. Chem. 253, 7662 (1978).
2. Ammonium Arachidonate Solution. A 250 μL aliquot of 20.0 mM arachidonic acid in absolute ethanol and a 50-μL aliquot of concentrated ammonium hydroxide is placed into a test tube. The solvent and excess ammonium hydroxide is evaporated under a stream of nitrogen at room temperature. The ammonium arachidonate residue is dissolved in 500 μL of 100 mM 2-amino-2-hydroxymethyl-1,3-propanediol hydrochloride (Tris HCl) buffer (pH 8.0) by using a vortex mixer. The final concentration of ammonium arachidonate (working solution) is 10.0 mM.
3. Enzyme Buffer 100 mM Tris HCl (pH 8.0) containing 2.0 mM phenol, 5.0 mM ethylenediaminetetraacetic acid (EDTA), 5.0 mM diethyldithiocarbamic acid and 1.0% Tween 20.
4. Reaction Buffer 100 mM Tris HCl (pH 8.0) containing 2.0 μM hematin and 1.0 mM phenol (prepared daily).
5. Detergent Solubilized Lipid-depleted Sheep Seminal Vesicle Microsome Suspension. Ten mg (solid) of lipid-depleted microsomal powder from sheep seminal vesicles is suspended in 1.0 mL of enzyme buffer and kept at 4° C. until used.
6. Solutions of Test (Formula I compound) or Reference Articles. Test and reference articles are dissolved in the reaction buffer prepared in 4) or a solvent that will not interfere with cyclooxygenase activity, e.g., dimethylsulfoxide, ethanol or acetone.
II. Cyclooxygenase Inhibition Assay
Three mL of the reaction buffer and 20 μL of the microsomal enzyme suspension are placed in a Yellow Springs Instrument (YSI) oxygen chamber where the temperature is maintained at 30° C. by means of a temperature controlled circulating water bath. Aliquots of the solutions containing ≤[…] of Formula I compound (test article) or reference article [see 6) above] are added to the YSI chamber and incubated for 2 minutes. The reaction is initiated by addition of 30 μL of the 10 mM ammonium arachidonate solution and cyclooxygenase activity determined polarigraphically using an oxygen electrode by measuring the rate of oxygen consumption [Cook et al., Anal. Biochem 96 341-51 (1979) and Cook and Lands, Can. J. Biochem. 53, 1220-1231 (1975)].
Test, reference, and control articles were evaluated in triplicate. Cyclooxygenase activity was determined from the slope (mv/unit time) of the recorder tracing with 1 mV being proportional to a 2.34 μM change in oxygen concentration.
The IC50 (concentration of test or reference article that inhibits the reaction by 50%) was calculated from cumulative plots relating the extent of inhibition of cyclooxygenase activity in control group assays to increasing concentrations of test article. Where no inhibition exists, the IC50 is expressed as greater than the highest concentration of the drug tested.

CCCC[C@@H]1S[C@@H](c2cccc(Oc3ccccc3)c2)NC1=O (relative stereo) [Example 83, 5-Butyl-2-(3-phenoxyphenyl)-4-thiazolidinone] gave an IC50 of 12000 nM.
Work on CCCCC1SC(c2cccc(Oc3ccccc3)c2)N(CCc2ccccc2)C1=O (stereo not shown) [Example 17, 5-Butyl-2-(3-phenoxyphenyl)-3-(2-phenylethyl)-4-thiazolidinone] yielded an IC50 of 3400 nM.
CCCCC1SC(c2cccc(Oc3ccccc3)c2)N(CCCCc2ccccc2)C1=O (stereo not shown) [Example 1, 5-Butyl-2-(3-phenoxyphenyl)-3-(4-phenylbutyl)-4-thiazolidinone] gave an IC50 of 90 nM.
For CC1SC(c2cccc(Oc3ccccc3)c2)N(CCCCc2ccccc2)C1=O (stereo not shown) [Example 7, 5-Methyl-2-(3-phenoxyphenyl)-3-(4-phenylbutyl)-4-thiazolidinone], the IC50 was 1400 nM.
In the case of CCCC[C@@H]1S[C@H](c2cccc(Oc3ccccc3)c2)N(CCCCCC(=O)OCC)C1=O (relative stereo) [Example 51], the IC50 is reported as 260 nM.
Work on CCCCC1SC(c2cccc(Oc3ccccc3)c2)N(CCCCC(=O)O)C1=O (stereo not shown) [Example 45, 5-Butyl-4-oxo-2-(3-phenoxyphenyl)-3-thiazolidinepentanoic acid] yielded an IC50 of 9300 nM.
For CCCCC1SC(c2cccc(C(=O)c3ccccc3)c2)N(CCCCc2ccccc2)C1=O (stereo not shown) [Example 8, 2-(3-Benzoylphenyl)-5-butyl-3-(4-phenylbutyl)-4-thiazolidinone], the IC50 was 10 nM.
